What follows are compounds tested against T1, AT1 L112A receptor (Rattus norvegicus, UniProt P25095, L112A) (assay: IP production assay in COS7 cells expressing AT1-L112A receptor). Details: 1 µM ligands or 0.1 µM Ang II, 30 min, n = 5, vs. (-).
T1 construct: expressed in transfected cells; host or cells: COS7
T1 sequence (P25095 1-359 L112A): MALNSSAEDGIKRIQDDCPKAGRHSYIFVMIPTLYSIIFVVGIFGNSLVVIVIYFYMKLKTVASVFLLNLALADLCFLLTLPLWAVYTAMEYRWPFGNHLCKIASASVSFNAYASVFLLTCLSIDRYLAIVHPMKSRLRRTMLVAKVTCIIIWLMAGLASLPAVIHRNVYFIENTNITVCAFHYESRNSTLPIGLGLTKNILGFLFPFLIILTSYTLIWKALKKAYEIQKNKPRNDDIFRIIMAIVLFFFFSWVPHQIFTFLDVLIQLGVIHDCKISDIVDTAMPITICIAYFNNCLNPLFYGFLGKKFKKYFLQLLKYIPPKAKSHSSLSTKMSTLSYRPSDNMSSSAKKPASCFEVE
Assay type: cell-based
Protocol: The synthetic rat AT1 receptor gene, which was cloned in the shuttle expression vector pMT-2, was used for expression and mutagenesis, as described previously. […] In the experiments, cells were grown without a cell-growth supplement. To express the AT1 receptor protein, 10 µg of purified plasmid DNA per 10^7 cells was used in the transfection. Wild-type and mutated AT1 receptors were transiently transfected into cells using Lipofectamine 2000 liposomal reagent (Roche Applied Science, Penzberg, Germany). Cells were plated and grown and were 70–90% confluent at the time of transfection. We incubated plasmid DNA (10 µg)–lipid (10 µL) complexes for 5 min at room temperature and added and incubated the complexes with cells for 24 h. We then analyzed the parameters in transfected cells. […] Transfected cells that had been cultured for 48–72 h were harvested. Cell membranes were prepared using the nitrogen Parr bomb disruption or freeze–thaw methods.
Ligand (such as agonist or antagonist)-induced IP production through the AT1 receptor in transfected COS7 cells transiently expressing the AT1 receptor was measured to evaluate cell signaling as a second messenger for controlling blood pressure, since the increases in the intracellular Ca^2+ concentration were the result of IP accumulation, which indicated vasoconstriction. As a surrogate model with higher levels of AT1 receptor expression, COS7 cells are suitable for IP measurement because it is easy to detect differences in IP production. Cells were labeled for 24 h with [^3H]-myoinositol at 37 °C in DMEM containing 10% FBS. Next, the cells were washed with buffer 3 times and incubated with a medium containing 10 mM LiCl for 20 min; 0.1 µM Ang II or 1 µM ligands were added and incubation was continued for another 30 min at 37 °C. After incubation, the medium was removed, and total soluble IP was extracted from the cells using the perchloric acid extraction method, as described previously. Cells were plated at a field density of 5 × 10^3 cells/cm^2 in 60 mm dishes and cultured in a fresh growth medium at 37 °C in a DMEM 5% CO2 incubator. […] The culture medium was changed 48 h after transfection and 1.5 mL of 1 μCi/mL of [^3H]-myoinositol was added to each 60-mm dish at 37 °C in DMEM containing 10% FBS. After labeling, the cells were washed with buffer 3 times and incubated with a medium containing 10 mM LiCl for 20 min. The indicated concentration of ligands was added and incubation was continued for an additional 30 min at 37 °C. After incubation, the medium was removed, and total soluble IP was extracted from the cells using the perchloric acid extraction method. Total IP production was expressed as the sum of radioactivity, as described previously.

Compound	Effect on IP production
CCCc1nc(C(C)(C)O)c(C(N)=O)n1Cc1ccc(-c2cc(Cc3ccc(O)cc3)ccc2-c2nnn[nH]2)cc1 [R794847]	none of the compounds (R239470, R781253, and R794847) affected IP production
CCCc1nc(C(C)(C)O)c(C(=O)O)n1Cc1ccc(-c2cc(Cc3ccc(O)cc3)ccc2-c2nnn[nH]2)cc1 [R781253]	none of the compounds (R239470, R781253, and R794847) affected IP production
CCCc1nc(C(C)(C)O)c(C(N)=O)n1Cc1ccc(-c2ccccc2-c2nnn[nH]2)cc1 [R239470]	none of the compounds (R239470, R781253, and R794847) affected IP production
CCCc1nc(C(C)(C)O)c(C(=O)O)n1Cc1ccc(-c2ccccc2-c2nnn[nH]2)cc1 [Olmesartan, olmesartan]	significant reduction in basal IP production levels

From publication PMC10216478, “Development of a Non-Peptide Angiotensin II Type 1 Receptor Ligand by Structural Modification of Olmesartan as a Biased Agonist” (Biomedicines, 2023)
